Assay results published in PMC4865820, “Branched Peptide, B2088, Disrupts the Supramolecular Organization of Lipopolysaccharides and Sensitizes the Gram-negative Bacteria” (Scientific Reports, 2016).
Positions of bridges follow the written chain, without caps; N, C: chain ends. Non-standard residues stand in square brackets, D forms with d. Residues, ends and D or L forms follow the SMILES beside them. Chains are numbered I, II in the order given. *: point of attachment. X1 = CC[C@H](C)CCCCC(=O)*; Dab = NCC[C@H](N)C(=O)O

Columns and labels:
[1] = test system: LPS (E. coli serotype 055:B5); assay: BODIPY TR cadaverine (BC) displacement assay with LPS; type: binding; conditions: 5 mM HEPES pH 7.4, duplicates; for ED50 (50% displacement of BC dye from LPS; also called BC50): fluorescence ex 580/em 620 nm, with respect to PMB; for EC50: no unit in table, ED50 values in μM, read-out: BC50 (LPS binding)
Procedure, shortened: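 Peptides (0.02–25.6 μM, two-fold dilutions) mixed 1:1 with BODIPY TR cadaverine:LPS (E. coli 055:B5) mixture in 5 mM HEPES pH 7.4; fluorescence at 580/620 nm. Displacement normalized to polymyxin B (Fmax) and probe:LPS alone (F0); ED50 from curve fit, duplicates.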

[2] = test system: LPS (E. coli serotype 055:B5); conditions: ref Torrent et al. [24]; cited from earlier work
Description: (§1) To investigate the interaction of B2088 with LPS, we performed the BODIPY TR cadaverine (BC) displacement assay reported by Wood et al.[22]. The probe binds to the lipid A part of the LPS with moderate affinity and can be displaced by putative LPS-binding molecules. The method was used to probe the affinity of polycationic molecules and LPS binding proteins. First, we determined the affinity of polymyxin B (PMB), a lipopeptide cyclic antibiotic which has a high affinity for LPS.

[3] = test system: human corneal epithelial (hTCEpi) cells
Description: To assess the safety of B2088 as a part of preclinical assessment, we used the xCELLigence system for the real-time analysis of cytotoxicity.

FITC-labelled LPS = assay: FITC-LPS fluorescence interaction assay; type: binding; conditions: 5 μg/ml FITC-LPS, ex 485/em 515 nm, 25 °C
Description: To confirm the findings from ITC experiments, we examined the ultrastructure of LPS or the LPS/B2088 complex by electron microscopy. TEM analysis of the LPS indicated a ribbon-like structure (Fig. 3a), consistent with previous studies. For the LPS-B2088 complex, the peptide:LPS ratios were chosen to epitomize the initial (high peptide:LPS) or final (low peptide:LPS) injections of the ITC curves shown in Fig. 2a–c. At low peptide:LPS ratio (~0.04), more electron-dense surface appeared presumably due to binding of the peptide to LPS may cause partial/complete neutralization of the negative charges and the ribbon-like structure of LPS remained intact (Fig. 3b). […]
The interaction between FITC-LPS was determined by monitoring the change in fluorescence emission intensity (λex = 485 nm and λem = 515 nm) using a Quanta Master spectrophotometer (Photon Technology International, NJ, USA) with a constant slit width of 0.5 nm at 25 °C. Briefly, the emission intensity of 5 μg/ml of FITC-LPS was monitored continuously in a 1 ml cuvette until it remained constant. 10 μl a concentrated stock solution of B2088 was added and the changes in fluorescence intensity were recorded as before.

lipid A = assay: BODIPY TR cadaverine (BC) displacement assay with lipid A; type: binding; conditions: 5 mM HEPES pH 7.4; fluorescence ex 580/em 620 nm
Description: as §1, with “LPS. […] Figure 1a,b show the concentration-dependent displacement of LPS/lipid A-bound BC upon addition of B2088. […] To confirm the importance of branching, we determined the BC50 for a linear retrodimer having the amino acid sequence, […] (Fig. 1d). […]” for “LPS.”
The BC displacement assay was used to determine the ability of each peptide to bind to LPS. […] The maximum fluorescence intensity (Fmax) was determined using a mixture containing 100 μl PMB (50 μg/ml) and 100 μl BC:LPS solution, as PMB is considered the ‘gold standard’ for LPS-sequestering agents. The minimum fluorescence intensity (F0) was measured using 200 μl of BC:LPS mixture to determine the background noise for this experiment. Fluorescence measurements for each peptide (F) were determined using a microplate reader (Model: TECAN Infinite 200, Austria) with excitation and emission wavelengths set at 580 nm and 620 nm respectively. […]

Structure (SMILES)	ED50 (50% displacement of BC dye from LPS; also called BC50) [1] [µM]	EC50 [1] [µM]	ED50 (BC displacement from LPS), literature value [2] [µM]	Change in CI values with time [3]	Peptide concentration above which dequenching of FITC-LPS fluorescence occurred (FITC-labelled LPS)	ED50 (50% displacement of BC dye from lipid A) (lipid A) [µM]
CC[C@H](C)CCCCC(=O)N[C@@H](CCN)C(=O)N[C@H](C(=O)N[C@@H](CCN)C(=O)N[C@H]1CCNC(=O)[C@H]([C@@H](C)O)NC(=O)[C@H](CCN)NC(=O)[C@H](CCN)NC(=O)[C@H](CC(C)C)NC(=O)[C@@H](Cc2ccccc2)NC(=O)[C@H](CCN)NC1=O)[C@@H](C)O [Polymyxin B, polymyxin B, reference compound] (X1-[Dab]T[Dab][Dab][Dab][dF]L[Dab][Dab]T; lactam 4-C (inferred); N-terminus assumed)	1.56 ± 0.02	1.56 ± 0.02	2.5 ± 0.1			
CC(C)[C@H](NC(=O)[C@H](CCCCN)NC(=O)[C@H](CCCNC(=N)N)NC(=O)CNC(=O)[C@@H](N)CCCNC(=N)N)C(=O)N[C@H](C(=O)N[C@@H](CCCNC(=N)N)C(=O)N[C@@H](CCCNC(=N)N)C(=O)NCCCC[C@H](NC(=O)[C@H](CCCNC(=N)N)NC(=O)[C@H](CCCNC(=N)N)NC(=O)[C@@H](NC(=O)[C@@H](NC(=O)[C@H](CCCCN)NC(=O)[C@H](CCCNC(=N)N)NC(=O)CNC(=O)[C@@H](N)CCCNC(=N)N)C(C)C)C(C)C)C(=O)N[C@@H](CCCCN)C(=O)O)C(C)C [B2088] (I: H-RGRKVVRRKK-OH / II: H-RGRKVVRR; amide I:9-II:C; N-terminus and C-terminus assumed)	1.92 ± 0.03	1.9 ± 0.1		significant increase in CI values	above 25 μg/ml	0.7 ± 0.14
